# Assay results from patent publication US20030157026A1, “Photodynamic diagnosis and therapy for insulin-dependent diabetes mellitus” (priority 2001, published 2003).
# What was measured:
# Format in all cases: in vivo
# [1] = system: macrophages having infiltrated the inflammatory sites of Langerhans islets; assay: Uptake of conventional PDT photosensitizers into macrophages in the pancreas of a mammal with IDDM; details: no test described
# [2] = system: BB rats with onset of IDDM; assay: Test Example 3: photodynamic therapy of IDDM in BB rats (664-nm laser light), survival rate
# Procedure: From 60 days after birth, BB rats (16 rats per group) were examined every day for the urine sugar level and blood sugar level, to confirm the time of the onset of IDDM. […] Photodynamic therapy of IDDM was thus conducted once, and thereafter, the survival rate (%) of the BB rats were evaluated during the breeding for subsequent […].
# On the other hand, the survival rate (%) of the control group of rats (untreated) was about 65% on Day 6 after the start of the test, and all rats had died on Day 22 after the start of the test.
# The survival rate (%) of rats under test was evaluated by the following equation: [formula]
# [3] = system: macrophages having infiltrated the islets of Langerhans; assay: Test Example 1: fluorescence localisation in frozen pancreatic sections after i.v. administration to BB rats with onset of IDDM; details: 5 mg/kg via tail vein, pancreas excised 1 hour after administration, 664 nm laser (same result with 405 nm UV / 672 nm fluorescence)
# Excerpt: From 60 days after birth, the BB rats were examined every day for the urine sugar level and blood sugar level by using GLUTEST SENSOR (Sanwa Kagaku Co., Ltd., Japan). […] The excised pancreases were frozen in dry ice/acetone, to prepare frozen pancreatic sections of 5 μm in thickness. The frozen pancreatic sections were irradiated with a semiconductor laser light of 664 nm (Matsushita Industrial Equipment Co., Ltd., Japan). An image of fluorescence as emitted by mono-L-aspartyl chlorin e6 in the frozen pancreatic section was observed under a fluorescence microscope equipped with a notched filter for cutting 664 nm wavelength (made by Carl Zeiss). […]
# Further, the places of the pancreas section which indicated the previously observed fluorescence of mono-L-aspartyl chlorin e6 were confirmed to be consistent with the sites where the macrophages were present in the pancreas sections. […] When a method comprising irradiation of a UV ray of a wavelength of 405 nm and observing a fluorescence at 672 nm with a cut filter for cutting light rays of wavelengths of not more than 600 nm was used for the observation of the fluorescence of mono-L-aspartyl chlorin e6, there could again be obtained the same result as that obtained in the above-described method comprising irradiation of the 664-nm semiconductor laser.
# [4] = BB rats treated by the photodynamic therapy
compound,measurement,setting,value
CCOC(=O)C1=Cc2c3nc(cc4nc(cc5[n-]c(cc6[n-]c2c(C)c6CC)c(C)c5CC)C(C)=C4CC)[C@@H](C)[C@]13CC.[Cl-].[Cl-].[Sn] (racemic) [rostaporfin],uptake into macrophages when each singly administered,[1],selectively be uptaken by and into the macrophages
C=CC1=C(C)C2=CC3=C(/C=C/NO)C(C)(O)C(=CC4=NC(=CC5=NC(=CC1=N2)C(C)=C5CCC(=O)N[C@@H](CC(=O)[O-])C(=O)[O-])C(CCC(=O)N[C@@H](CC(=O)[O-])C(=O)[O-])=C4C)N3.[Na+].[Na+].[Na+].[Na+] (stereo partly drawn) [ATX-S10],uptake into macrophages when each singly administered,[1],selectively be uptaken by and into the macrophages
C=Cc1c(C)c2cc3nc(c(CC(=O)O)c4[nH]c(cc5nc(cc1[nH]2)C(C)=C5CC)c(C)c4C(=O)O)[C@@H](CCC(=O)O)[C@@H]3C [chlorin e6],uptake into macrophages when each singly administered,[1],selectively be uptaken by and into the macrophages
C=Cc1c(C)c2cc3nc(c(CC(=O)N[C@@H](CC(=O)[O-])C(=O)[O-])c4[nH]c(cc5nc(cc1[nH]2)C(C)=C5CC)c(C)c4C(=O)[O-])[C@@H](CCC(=O)[O-])[C@@H]3C.[Na+].[Na+].[Na+].[Na+] [mono-L-aspartyl chlorin e6],blood sugar level compared with control group,[2]; [4],blood sugar level had changed at slightly lower stages
same,progress of Langerhans islet inflammation (pancreatic insulitis),[2]; [4],pancreatic insulitis was suppressed by the PDT
same,insulin production,[2]; BB rats treated by the photodynamic therapy vs control,tendency to delay the disappearance of insulin production
same,uptake and accumulation of the administered photosensitizer (fluorescence image vs macrophage antibody staining),[3],uptaken into and accumulated specifically in the macrophages having infiltrated the islets of Langerhans
CC(=O)[O-].CC(=O)[O-].CCc1c(CC)c2cc3nc(cnc4cc(OCCOCCOCCOC)c(OCCOCCOCCOC)cc4ncc4nc(cc1[n-]2)C(CCCO)=C4C)C(C)=C3CCCO.O.[Lu+3] [motexafin lutetium],uptake into macrophages when each singly administered,[1],selectively be uptaken by and into the macrophages
porfimer sodium,uptake into macrophages when each singly administered,[1],selectively be uptaken by and into the macrophages
tetrasodium salt of mono-L-aspartyl chlorin e6,long-term survivors,"[2]; BB rats, 5 mg/kg i.v. plus 664-nm laser, all control rats had died on Day 22",several rats surviving still after Day 35
same,survival curve compared with untreated control group,"[2]; BB rats, 5 mg/kg i.v., 24 h later 664-nm laser 50 J/cm^2, once",evident prolongation of their survival curve
same,survival rate (%) on Day 6 after the start of the therapy,"[2]; BB rats, 5 mg/kg i.v., 24 h later 664-nm laser 50 J/cm^2 transcutaneously, once, untreated control about 65%",100%
